Results from patent US20050171192A1, “Use of histamine to treat bone disease” (priority 2003, published 2005).
Like-named read-outs stand apart in the source and are kept apart here.

Legend:
[1] = biological target: membrane bound oxidase of stimulated phagocytes (Homo sapiens, UniProt P04839); settings: substrate of the membrane bound oxidase; generally accepted (background); cited from earlier work
[2] = intravenous 5 mg in conjunction with steroid therapy; compared to steroid therapy alone
Protocol: Individuals suffering from bone loss associated with steroid therapy, including treatment with corticosteroids, such as betamethasone, budesonide, cortisone dexamethasone, hydrocortisone, methylprednisolone, prednisolone, prednisone, and triamcinolone, are identified. In conjunction with steroid therapy, the individuals are intravenously administered 5 mg of a ROS scavenger or a placebo.

[3] = Example 7: bone loss associated with cancer treatments (hormone therapy); format: in vivo; settings: oral 100 mg in conjunction with hormone therapy; compared to placebo group
Protocol: Individuals suffering from cancer and being treated with hormone therapy are identified. The individuals are divided into 11 groups of 10 each. In conjunction with hormone therapy, Groups 1 through 10 are orally administered 100 mg of histamine, histamine agonists, histamine salts, histamine prodrugs, NADPH-oxidase inhibitors, histamine dihydrochloride, histamine phosphate, serotonin, 5HT agonists, or histamine receptor agonists, respectively. Group 11 receives a placebo in conjunction with hormone therapy.

[4] = Example 1: inhibition of bone resorption in subjects with bone loss; format: in vivo; settings: effective dose; Groups 1 through 10 compared to placebo Group 11
Protocol: Subjects suffering from bone loss exacerbated by osteoclast-produced ROS are identified. The subjects are separated into 11 groups of 10 subjects each. […] Subjects in Group 11 are administered a placebo.

[5] = oral 75 mg in conjunction with antibiotics; versus antibiotics alone
Protocol: Individuals suffering from osteomyelitis are identified. The individuals are orally administered 75 mg of histamine phosphate in conjunction with antibiotics or antibiotics alone.

[6] = oral 125 mg; versus placebo
Protocol: Individuals suffering from bone loss associated with primary and secondary hyperparathyroidism are identified. The individuals are orally administered 125 mg of histamine or a placebo.

[7] = oral 50 mg, 100 mg, 200 mg, 1,000 mg; relative to placebo group
Protocol: Individual suffering from various types of osteoporosis, including type I and type II osteoporosis, age-related osteoporosis, disuse osteoporosis, diabetes-related osteoporosis, and steroid-related osteoporosis, are identified. The individuals are separated into 5 groups of 20 individuals. Individuals in Groups 1 through 4 are orally administered 50 mg, 100 mg, 200 mg, and 1,000 mg of histamine, respectively. Individuals in […] are administered a placebo. The rate of bone loss is reduced for Groups 1 through 4 relative to the rate of bone loss for the placebo group.

Row | Compound | Km [1] | bone loss [2] | bone healing [3] | bone loss [3] | rate of bone healing [4] | rate of bone loss [4] | bone healing [5] | rate of bone loss [6] | trauma to bone cells [6] | rate of bone loss [7]
1 | NC(=O)C1=CN([C@@H]2O[C@H](COP(=O)(O)OP(=O)(O)OC[C@H]3O[C@@H](n4cnc5c(N)ncnc54)[C@H](O)[C@@H]3O)[C@@H](O)[C@H]2O)C=CC1 [NADH] | 450 µM |  |  |  |  |  |  |  |  | 
2 | NC(=O)C1=CN([C@@H]2O[C@H](COP(=O)(O)OP(=O)(O)OC[C@H]3O[C@@H](n4cnc5c(N)ncnc54)[C@H](OP(=O)(O)O)[C@@H]3O)[C@@H](O)[C@H]2O)C=CC1 [NADPH] | 45 µM |  |  |  |  |  |  |  |  | 
3 | Cl.Cl.NCCc1c[nH]cn1 [histamine dihydrochloride] |  | reduced | accelerated | inhibited | accelerated | reduced |  |  |  | 
4 | NCCc1c[nH]cn1.O=P(O)(O)O [histamine phosphate] |  |  | accelerated | inhibited | accelerated | reduced | accelereated |  |  | 
5 | NCCc1c[nH]cn1 [histamine] |  |  | accelerated | inhibited | accelerated | reduced |  | reduced | minimized | reduced
6 | NCCc1c[nH]c2ccc(O)cc12 [serotonin] |  |  | accelerated | inhibited | accelerated | reduced |  |  |  | 
